Some test systems named below: A549; OVCAR-5; KM12; EKVX; HCC 2998; ACHN; HL-60; T47D; SN12C; MOLT-4; MCF7; Hs-578T; NCI-H23; MDA-N; 786-0; NCI-H460; UO-31; CAKI-1; RPMI-8226; CCRF-CEM.
Common to all, as to assay: NCI anticancer screen, dose series, 48 h

This is an account of results in ChEMBL document CHEMBL1201862, “PubChem BioAssay data set” (2004).

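96-well plates; 48 h exposure; 5 concentrations. Endpoints by linear interpolation between flanking doses. Not reached: highest tested concentration assigned. Here, GI50 denotes the concentration required for 50% inhibition of growth.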 Activity calls are given as the source filed them. Rule as the data show it: active = GI50 up to about 1.1 µM and inactive = higher.

Consider `Cc1ccc(S(=O)(=O)C2=C(C(C)C)N=NC2(C)C)cc1`, for which the GI50 is 81.3 µM (inactive) with A549; > 100 µM (inactive) with OVCAR-5; > 100 µM (inactive) with KM12; > 100 µM (inactive) in the test with EKVX; 73.6 µM (inactive) in the test with HCC 2998; > 100 µM (inactive) in the test with ACHN. The GI50 in the test with HL-60 is > 100 µM (inactive); in the test on T47D it was 60.1 µM (inactive); in the test on SN12C, > 100 µM (inactive); in the test on MOLT-4, 18.7 µM (inactive); in the test with MCF7 it was 62.7 µM (inactive); with Hs-578T, 57.5 µM (inactive). The GI50 in the test on NCI-H23 is 48.8 µM (inactive); with MDA-N, 80 µM (inactive); with 786-0 it was > 100 µM (inactive); with NCI-H460, > 100 µM (inactive); with UO-31 it was > 100 µM (inactive); in the test with CAKI-1 it was 26.7 µM (inactive). Besides, the GI50 with RPMI-8226 was 9.14 µM (inactive).

For `CC(C)(C)OC(=O)NCC(=O)N1CCCN(C(=O)CNC(=O)OC(C)(C)C)CC1`, the GI50 with A549, in the test with OVCAR-5, in the test on KM12, in the test on EKVX, in the test on HCC 2998 and in the test on ACHN was > 100 µM (inactive) each time. In addition, the GI50 in the test with HL-60, with T47D, in the test with SN12C, in the test with MOLT-4, in the test with MCF7 and in the test on Hs-578T was > 100 µM (inactive) in each case. The GI50 in the test with NCI-H23, in the test with MDA-N, in the test with 786-0, in the test on NCI-H460, with UO-31 and in the test with CAKI-1 was > 100 µM (inactive) throughout. Also, the GI50 with RPMI-8226 is > 100 µM (inactive).

As for `CC(C)(C)n1c(=O)n2c(-c3ccccc3)c(-c3ccccc3)n2c1=O`, the GI50 with A549 is 56.9 µM (inactive); with OVCAR-5 it was > 100 µM (inactive); in the test with KM12 it was > 100 µM (inactive); in the test on EKVX it was > 100 µM (inactive); with HCC 2998, 49.7 µM (inactive); in the test on ACHN it was > 100 µM (inactive). Besides, the GI50 in the test with HL-60 is 11.5 µM (inactive); with T47D, > 100 µM (inactive); in the test with SN12C it was > 100 µM (inactive); in the test on MCF7, 56.6 µM (inactive); in the test on Hs-578T it was > 100 µM (inactive); in the test on NCI-H23, > 100 µM (inactive). The GI50 with MDA-N was > 100 µM (inactive); in the test on 786-0, 57.5 µM (inactive); in the test with NCI-H460, > 100 µM (inactive); in the test on UO-31, 12.5 µM (inactive); in the test on CAKI-1, > 100 µM (inactive); with RPMI-8226, 17.1 µM (inactive).

Regarding `Cc1ccccc1C(=O)C#Cc1cn(C2CC(O)C(CO)O2)c(=O)[nH]c1=O` (stereo not drawn), the GI50 in the test with A549, in the test with KM12, with EKVX, in the test on HCC 2998, in the test on ACHN and in the test on HL-60 was > 100 µM (inactive) throughout. For the same compound, the GI50 is 68.2 µM (inactive) in the test on T47D; > 100 µM (inactive) in the test on SN12C; 16.1 µM (inactive) with MOLT-4; > 100 µM (inactive) in the test with MCF7; 20.5 µM (inactive) in the test on CCRF-CEM; > 100 µM (inactive) with Hs-578T. In addition, the GI50 in the test with NCI-H23, with MDA-N, in the test with 786-0, in the test on NCI-H460, in the test with UO-31 and in the test on CAKI-1 was > 100 µM (inactive) throughout. In the test with RPMI-8226, the GI50 is > 100 µM (inactive).

As for `O=C(O)c1ccccc1/C=N\N(CCO)C1=NCCN1`, the GI50 in the test with A549, with OVCAR-5, with KM12, in the test on EKVX, in the test with HCC 2998 and in the test with ACHN was > 100 µM (inactive) throughout. The GI50 in the test on HL-60, in the test with T47D, in the test on SN12C, with MOLT-4, with MCF7 and in the test on CCRF-CEM was > 100 µM (inactive) throughout. Also, the GI50 with Hs-578T, in the test on NCI-H23, in the test with MDA-N, in the test with 786-0, in the test with NCI-H460 and with UO-31 was > 100 µM (inactive) in each case. Besides, the GI50 in the test on RPMI-8226 was > 100 µM (inactive).

Take `COC1CC(OC2C(C)OC(OC3C(C)OC(OC4C(O)CC(O[C@H]5CC[C@@]6(C)C(=CC[C@]7(O)[C@@H]6C[C@@H](OC(C)=O)[C@@]6(C)[C@]7(O)CC[C@@]6(O)C(C)=O)C5)OC4C)CC3OC)CC2OC)OC(C)C1O` (stereo partly drawn): the GI50 in the test with A549, in the test with OVCAR-5, in the test with KM12, in the test on EKVX, with HCC 2998 and in the test with ACHN was > 12.5 µM (inactive) throughout. In addition, the GI50 with HL-60, in the test with T47D, in the test with SN12C, in the test on MOLT-4, in the test with MCF7 and in the test with CCRF-CEM was > 12.5 µM (inactive) each time. The GI50 was > 12.5 µM (inactive) in the test on Hs-578T; > 12.5 µM (inactive) in the test with NCI-H23; > 12.5 µM (inactive) in the test with MDA-N; > 12.5 µM (inactive) in the test on 786-0; 5.61 µM (inactive) with UO-31; > 12.5 µM (inactive) in the test on CAKI-1. For the same compound, the GI50 in the test on RPMI-8226 is > 12.5 µM (inactive).

In the case of `Nn1c(-c2ccccc2)nn(C(=O)c2ccccc2)c1=O`, the GI50 in the test with A549, in the test with OVCAR-5, with KM12, in the test with EKVX, in the test on HCC 2998 and in the test with ACHN was > 100 µM (inactive) each time. In addition, the GI50 was > 100 µM (inactive) in the test with HL-60; > 100 µM (inactive) in the test on T47D; 87.1 µM (inactive) in the test on SN12C; > 100 µM (inactive) in the test on MOLT-4; > 100 µM (inactive) in the test on MCF7; > 100 µM (inactive) in the test on CCRF-CEM. Also, the GI50 with Hs-578T, in the test on NCI-H23, in the test on MDA-N, in the test with 786-0, with NCI-H460 and in the test with UO-31 was > 100 µM (inactive) each time. The GI50 in the test with RPMI-8226 is > 100 µM (inactive).

With `O=S1(=O)OCc2ccccc21`, the GI50 in the test with A549 is > 100 µM (inactive); with OVCAR-5, > 100 µM (inactive); in the test on KM12, > 100 µM (inactive); in the test with EKVX, > 100 µM (inactive); in the test on HCC 2998, > 100 µM (inactive); in the test on ACHN, 61.5 µM (inactive). Also, the GI50 was 59.3 µM (inactive) in the test on HL-60; > 100 µM (inactive) with T47D; > 100 µM (inactive) in the test with SN12C; 15.7 µM (inactive) with MOLT-4; > 100 µM (inactive) in the test on MCF7; > 100 µM (inactive) with CCRF-CEM. In addition, the GI50 with Hs-578T was > 100 µM (inactive); with NCI-H23 it was > 100 µM (inactive); with MDA-N, > 100 µM (inactive); with 786-0, 60.1 µM (inactive); in the test on NCI-H460, 34.4 µM (inactive); in the test with UO-31, > 100 µM (inactive). In addition, in the test with RPMI-8226, the GI50 was 61.1 µM (inactive).

Consider `Nc1n[n+]([O-])c2ccc(Cl)cc2[n+]1[O-]`, for which the GI50 in the test with A549 was 20.4 µM (inactive); in the test with OVCAR-5, 25.8 µM (inactive); in the test on KM12, 16.1 µM (inactive); in the test with EKVX, 32.2 µM (inactive); in the test with HCC 2998 it was 16.4 µM (inactive); in the test with ACHN it was 24.2 µM (inactive). In addition, the GI50 in the test on HL-60 was 7.23 µM (inactive); in the test on T47D, 24.7 µM (inactive); in the test with SN12C, 32.1 µM (inactive); in the test with MOLT-4, 14.7 µM (inactive); in the test on MCF7 it was 16.9 µM (inactive); with CCRF-CEM, 22.4 µM (inactive). Besides, the GI50 in the test with Hs-578T is 13.9 µM (inactive); in the test with NCI-H23, 20.1 µM (inactive); with MDA-N, 23.7 µM (inactive); with 786-0 it was 31.7 µM (inactive); with UO-31, 27.6 µM (inactive); with CAKI-1 it was 21.9 µM (inactive). The GI50 with RPMI-8226 was 14.7 µM (inactive).

On to `COC(=O)C[C@](O)(CCCC(C)(C)O)C(=O)O[C@@H]1C(OC)=C[C@]23CCCN2CCc2cc4c(cc2[C@H]13)OCO4` [OMACETAXINE MEPESUCCINATE], for which the GI50 with OVCAR-5 was 0.494 µM (active); in the test on KM12, 0.142 µM (active); in the test with EKVX, 0.133 µM (active); in the test on HCC 2998, 0.0583 µM (active); in the test with ACHN, 0.617 µM (active); in the test on HL-60, 0.0325 µM (active). Moreover, the GI50 with T47D was 0.383 µM (active); in the test on SN12C, 0.121 µM (active); in the test on MOLT-4 it was 0.0123 µM (active); with MCF7 it was 0.015 µM (active); in the test with CCRF-CEM, 0.0215 µM (active); in the test with Hs-578T, 1.07 µM (active). Moreover, the GI50 in the test on NCI-H23 was 0.0528 µM (active); in the test on MDA-N it was 2.42 µM (inactive); in the test on 786-0, 0.893 µM (active); in the test with UO-31, 0.546 µM (active); in the test on CAKI-1, 0.203 µM (active); in the test with RPMI-8226 it was 0.0388 µM (active).
